Laboratory results as given in ChEMBL document CHEMBL1123941, “Potential antisecretory antidiarrheals. 1. Alpha 2-adrenergic aromatic aminoguanidine hydrazones” (1988).
Active and inactive are the calls of the source. No cut-off for these calls is given here.

Experiments:
Rattus norvegicus [1] = species: Rattus norvegicus; assay: Inhibition of cholera toxin induced intestinal fluid secretion in rat; I= Inactive; type: functional, organism-based
Oryctolagus cuniculus [2] = species: Oryctolagus cuniculus; assay: Inhibition of increase in intestine potential difference caused by diarrhea-inducing secretagogues in rabbits using 'Using chamber'; Inactive; type: functional, organism-based
Rattus norvegicus [3] = species: Rattus norvegicus; assay: Inhibition of cholera toxin induced intestinal fluid secretion in rat; type: functional; conditions: read-out: ID50 (the source's name)
Oryctolagus cuniculus [4] = species: Oryctolagus cuniculus; assay: Inhibition of increase in intestine potential difference caused by diarrhea-inducing secretagogues in rabbits using 'Using chamber'; Active at 1.0 x 10e-6 M; type: functional, organism-based
Oryctolagus cuniculus [5] = species: Oryctolagus cuniculus; assay: Inhibition of increase in intestine potential difference caused by diarrhea-inducing secretagogues in rabbits using ''Using chamber''; Active at 1.1 x 10e-5 M; type: functional, organism-based
Oryctolagus cuniculus [6] = species: Oryctolagus cuniculus; assay: Inhibition of increase in intestine potential difference caused by diarrhea-inducing secretagogues in rabbits using 'Using chamber'; Active 1.0x 10e-6 M; type: functional, organism-based

Row | SMILES | ID50 (Rattus norvegicus [1]) | inhibition (Oryctolagus cuniculus [2]) | ED50 (Rattus norvegicus [3]) [mg/kg] | further results
1 | Cc1c(N)cccc1/C=N/N=C(N)N | inactive | inactive | – | –
2 | N=C(N)N/N=C1\CCCc2ccccc21 | – | inactive | 30.6 | –
3 | COc1ccc2c(c1)/C(=N/N=C(N)N)CCC2 | inactive | – | – | –
4 | N=C(N)N/N=C1\CCc2ccccc21 | inactive | – | – | –
5 | Cc1cc(/C=N/N=C(N)N)cc(C)c1O | inactive | inactive | – | –
6 | COc1cccc2c1CCC/C2=N\N=C(N)N | inactive | – | – | –
7 | Cc1cccc(C)c1/C=N/N=C(N)N | – | – | 1.6 | inhibition (Oryctolagus cuniculus [4]): Active at 1.0 x 10e-6 M
8 | Cc1cc(O)cc(C)c1/C=N/N=C(N)N | – | inactive | 3.4 | –
9 | CC1CCc2ccccc2/C1=N/N=C(N)N (stereo unspecified) | inactive | – | – | –
10 | COc1cc(C)c(/C=N/N=C(N)N)c(C)c1 | – | inactive | 27 | –
11 | C/C(=N\N=C(N)N)c1c(C)cccc1C | inactive | inactive | 13.3 | inhibition (Oryctolagus cuniculus [5]): Active at 1.1 x 10e-5 M
12 | N=C(N)N/N=C/c1ccc2ccccc2c1 | inactive | inactive | – | –
13 | N=C(N)N/N=C/c1c(Cl)cccc1Cl [GUANABENZ] | – | – | 1.3 | inhibition (Oryctolagus cuniculus [6]): Active
14 | N=C(N)N/N=C/c1ccnc2ccccc12 | inactive | inactive | – | –
15 | Cc1cc(C)c(/C=N/N=C(N)N)c(C)c1 | – | inactive | 16.6 | –
16 | Cc1cccc(C)c1/C=N/NC1=NCCN1 | – | – | 7.9 | –
17 | Cc1c(N)cc(N)c(C)c1/C=N/N=C(N)N | inactive | – | – | –
18 | Cc1ccccc1/C=N/N=C(N)N | inactive | inactive | – | –
19 | N=C(N)N/N=C/c1cccc2ccccc12 | – | inactive | 34.6 | –
20 | Cc1ccc(N)cc1/C=N/N=C(N)N | inactive | – | – | –
21 | COc1ccc2c(c1)CCC/C2=N\N=C(N)N | – | – | 20.5 | –
